Active and inactive are the calls of the source.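 How the source made its calls: active means signal decrease with fitted half-maximal dose at or below ten times the highest valid tested dose; inconclusive means poor fit, or flat fit at 30 to 70% inhibition; inactive means the rest.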
Each compound was assayed against Zinc finger protein mex-5 (Caenorhabditis elegans) (UniProt Q9XUB2) (assay: inhibitors of MEX-5 RNA binding, dose response, biochemical, fluorescence polarization, C. elegans, cherry-picked, round 3 (AID 493250)). Details: purified MEX-5-MBP, FITC-TCR2 RNA fluorescence polarization.
Sequence of Zinc finger protein mex-5 (Caenorhabditis elegans) (Q9XUB2 whole entry, looked up): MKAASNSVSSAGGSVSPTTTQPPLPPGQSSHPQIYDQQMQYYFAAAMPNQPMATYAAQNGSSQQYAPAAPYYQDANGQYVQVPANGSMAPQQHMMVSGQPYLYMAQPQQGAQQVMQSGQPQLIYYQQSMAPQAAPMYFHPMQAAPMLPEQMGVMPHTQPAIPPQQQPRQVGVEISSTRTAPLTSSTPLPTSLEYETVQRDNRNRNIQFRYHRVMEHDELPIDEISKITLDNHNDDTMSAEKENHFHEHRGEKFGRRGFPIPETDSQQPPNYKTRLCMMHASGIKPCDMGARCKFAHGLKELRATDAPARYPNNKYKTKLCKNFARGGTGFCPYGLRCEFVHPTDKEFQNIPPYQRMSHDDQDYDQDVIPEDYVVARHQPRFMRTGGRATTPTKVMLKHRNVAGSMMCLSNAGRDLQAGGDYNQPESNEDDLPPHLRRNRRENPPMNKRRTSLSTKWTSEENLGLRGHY

| SMILES | AC50 |
| --- | --- |
| O=[N+]([O-])c1ccccc1NC(=S)N/N=C/c1ccc(O)c(O)c1 | 10.4 µM |
| N=C1CCC(=N)c2c1c(O)c1ccccc1c2O | 6.52 µM |
| COc1ccccc1/C=C/C=C1\Oc2c(ccc(O)c2CN(C)C)C1=O | 2.28 µM |
| Cc1ccc(S(=O)(=O)c2cc3c(=O)n4ccccc4nc3n(C3CCCCC3)c2=N)cc1 | > 10 µM (inactive) |
| Cc1cccc(N2C(=O)NC(=O)/C(=C/c3cc4c(cc3[N+](=O)[O-])OCO4)C2=O)c1 | 9.86 µM |
| Cn1c(O)c(N=Nc2ccc(F)cc2)c2ccccc21 | 1.75 µM |
| CN1CC=C2C(C#N)=C(N)C(C#N)(C#N)C(Cc3ccccc3)C2C1 (stereo not drawn) | 4.69 µM |
| Cc1nc2nc(-c3ccc(Cl)cc3)cn2nc1C | 9.89 µM |
| CNC(=O)c1cc2ccc(OC)cc2oc1=O | > 10 µM (inactive) |
| CCN1/C(=C/C=C/c2oc3ccc(-c4ccccc4)cc3[n+]2CC)Oc2ccc(-c3ccccc3)cc21 | 0.338 µM |
| CCOC(=O)C1C(=O)C=C(/C=C/c2ccc(N(C)C)cc2)CC1c1ccccc1 (stereo not drawn) | 7.41 µM |
| COc1ccc(-n2c(O)c(/C=N/NS(=O)(=O)c3cc(C)ccc3C)c3ccccc3c2=O)cc1OC | 1.32 µM |
| COc1ccccc1/C=C1\SC(=S)N(CCC(=O)Nc2cc(C)on2)C1=O | > 10 µM (inactive) |

Same assay, conditions: purified MEX-5-MBP, FITC-TCR2 RNA fluorescence polarization; at 10 µM (top of the series)

| SMILES | activity change, negative = inhibition |
| --- | --- |
| Cc1ccc(Nc2nc(-c3ccc(O)cc3O)cs2)nc1 | inactive |
| CSc1nsc2nc(=O)c(/C=C3\C(C)=Nc4ccc(C)cc43)c(N)n12 | inactive |
| CCCOc1ccc([C@@H]2C3CN(C(=O)OCC)CC=C3C(C#N)=C(N)C2(C#N)C#N)cc1OC (stereo partly drawn) | inactive |
| Cc1cccnc1Nc1nc(-c2ccc(O)cc2O)cs1 | inactive |
| CCOc1ccccc1C1NC(=O)NC(C)=C1C(=O)OCc1ccccc1 (stereo not drawn) | inactive |
| CCOc1ccc(/C=N/n2c(C)nc3ccccc3c2=O)cc1 | inactive |
| CCc1ccc(/C=C2\Oc3cc(OS(C)(=O)=O)ccc3C2=O)cc1 | inactive |
| COc1ccc2c(c1)NC(c1ccc(N(C)C)cc1)c1cccn1-2 (stereo not drawn) | inactive |
| CN1/C(=C\C=C(/C#N)C(=O)Nc2ccccc2F)C(C)(C)c2ccccc21 | inactive |
| O=C(O)c1cccc(NC(=S)N/N=C/c2c[nH]c3ccccc23)c1 | inactive |
| Cc1nc2c3ccccc3nc(NNC(=O)CCC(=O)N3CCC(C)CC3)n2n1 | inactive |
| CC1=Nc2ccc(C)cc2/C1=C/c1c(N)n2c(S(=O)(=O)C(C)C)nsc2nc1=O | inactive |
| COc1ccc(N(CCC#N)C(=O)/C(C#N)=C/c2cccs2)cc1 | inactive |
| N#CCCn1c2ccccc2c2nc3ccccc3nc21 | inactive |
| O=C(O)c1ccc2cccnc2n1 | inactive |
| CN1CCc2c(sc(NC(=O)C3CCCN3S(=O)(=O)c3ccc(Cl)s3)c2C(N)=O)C1 (stereo not drawn) | inactive |
| O=C1/C(=C\c2ccc(Br)o2)Cc2ccccc21 | inactive |
| CN1CN(C)c2cccc3cccc1c23 | inactive |
| CS(=O)(=O)c1nsc2nc(=O)c(/C=C3\C=Nc4ccccc43)c(N)n12 | inactive |
| CSCCCN1CCC(n2nccc2NC(=O)CCCc2ccccc2)CC1 | inactive |

| SMILES | activity change, negative = inhibition |
| --- | --- |
| COCCNC(=S)N/N=C/c1c2ccccc2cc2ccccc12 | inactive |
| CC1=C(C(=O)OCc2ccccc2)C(c2cccc([N+](=O)[O-])c2)NC(=O)N1C (stereo not drawn) | inactive |
| CCCc1nc2ccccc2c(=O)n1/N=C/c1ccc(O)c(O)c1 | inactive |
| C#CCOCCOCCOCCNc1nc(N2CCN(C(=O)[C@H]([C@@H](C)CC)n3cc([C@@H](N)CO)nn3)CC2)nc(N2CCN(C(=O)[C@H]([C@@H](C)CC)n3cc([C@@H](N)CO)nn3)CC2)n1 | inactive |
| Nc1ccc([N+](=O)[O-])cc1C(=O)NNC(=O)c1ccco1 | inactive |
| O=C1N=C(N2C=CC(=C3C=CNC=C3)C=C2)/C(=C/N=NC(=O)c2ccccc2)S1 | inactive |
| O=C1N=c2ccccc2=C1c1sc(=S)n(NC(=O)c2cccc(O)c2)c1O | inactive |
| O=C(NC1CCSc2ccccc21)c1ccccc1Br (stereo not drawn) | inactive |
| Cc1ccc(N2C(=O)c3ccc(C(=O)O)cc3C2=O)cc1C | inactive |
| Cc1c(O)ccc(-c2[nH]ncc2-c2nc3ccccc3s2)c1O | inactive |
| C=CCn1c(Cc2nc3ccc(Cl)cc3[nH]2)n[nH]c1=S | inactive |
| COc1ccccc1NCc1cc(=O)oc2c(C)c(O)ccc12 | inactive |
| CCCn1c(=N)c(C(=O)NC2CCCC2)cc2c(=O)n3cccc(C)c3nc21 | inactive |
| CCCCN(C(=O)c1ccc(C)o1)c1c(N)n(CCCC)c(=O)[nH]c1=O | inactive |
| COc1cc2c3c(c1OC)-c1cc(O)ccc1CC3NCC2 (stereo not drawn) | inactive |
| NC(=O)c1cccc2cc3ccccc3cc12 | inactive |
| COc1cccc(/C=N/NC(=O)N/N=C/c2cccc(OC)c2O)c1O | inactive |
| Cc1ccc(-c2cc(C(=O)Nc3ccc(S(=O)(=O)Nc4ncccn4)cc3)[nH]n2)c(O)c1C | inactive |
| Nc1ccc(Cc2ccc(N)c(C(=O)O)c2)cc1C(=O)O | inactive |
| COc1ccc(OC)c(Nc2nc(-c3ccc(O)c(O)c3)cs2)c1 | inactive |

| SMILES | activity change, negative = inhibition |
| --- | --- |
| CC(C#N)(Nc1ccc(Cl)cc1)c1cccnc1 (stereo not drawn) | inactive |
| COC(=O)c1ccccc1-c1ccc(C(c2c(C)[nH][nH]c2=O)c2c(C)[nH][nH]c2=O)o1 | inactive |
| Nc1ccc2oc(-c3ccccc3Cl)cc(=O)c2c1O | inactive |
| CN(N)c1ccc2c(C(F)(F)F)cc(C(F)(F)F)nc2n1 | inactive |
| CCOc1nc(-c2ccccc2)c2cc(Br)ccc2n1 | inactive |
| O=C1SC(SCc2ccccc2)=N/C1=C\c1ccc(C(=O)O)cc1 | inactive |
| O=C(NNC(=O)c1ccc([N+](=O)[O-])o1)c1ccccc1 | inactive |
| C[C@H](O)CC1=C[C@H](O)[C@@H](C)OC1=O | inactive |
| CC(=O)Nc1ccc(/C=N/NC(=O)CNS(=O)(=O)c2ccccc2)cc1 | inactive |
| COC1=C(Nc2ccc(O)cc2)C(=O)c2ccccc2C1=O | inactive |
| Cc1ccc(C(=O)NNc2ncnc3c2cnn3C)cc1 | inactive |
| Cn1c(O)c(C2=c3ccccc3=NC2=O)[nH]c1=S | inactive |
| CN1CCCc2cc(C=O)ccc21 | inactive |
| Cc1ccc(S(=O)(=O)c2cc3c(=O)n4cccc(C)c4nc3n(C3CCCCC3)c2=N)cc1 | inactive |
| O=C(NNC(=O)c1ccco1)c1csc(N2CCOCC2)n1 | inactive |
| CCC(=O)NCCc1nc2ccccc2n1Cc1ccccc1 | inactive |
| CN1C(=O)N(C)C(c2cccc([N+](=O)[O-])c2)C2=C1CCCC2=O (stereo not drawn) | inactive |
| N=C(N)N=Nc1c(O)[nH]c2ccc(Br)cc12 | inactive |
| NC(=S)N=Nc1c(O)[nH]c2ccccc12 | inactive |
| COC(=O)COc1ccc2c(c1)O/C(=C\c1cccc([N+](=O)[O-])c1)C2=O | inactive |

— PubChem BioAssay AID493250 (Broad Institute, 2011)
